The source of these data is patent publication US20100234417A1, “THYROTROPIN RELEASING HORMONE RECEPTOR-OREXIN RECEPTOR HETERO-DIMERS/-OLIGOMERS” (DIMERIX BIOSCIENCE PTY LTD., priority 2006, published 2010).

Assay [1] relates to thyrotropin releasing hormone receptor/orexin receptor hetero-dimer/-oligomer (OxR2 with HA-TRHR). Put plainly: eBRET: OxR2/Rluc8 + barr2/Venus + HA-TRHR as IG3. The assay is classed as cell-based. The settings on record: FIG. 18. As for the experimental part: Briefly, referring to FIGS. 1 to 3, the IGs are provided in the form of the two receptors (TRHR and OxR). One of the two is attached to an RC (IG1-RC1, IG3). A second IG (IG2-RC2) is derived from a molecule that interacts with the receptors upon ligand binding (e.g. beta-arrestin, or a mutant thereof).
Cells were seeded in 6-well plates at a density of approximately 630,000 cells/well (HEK293FT) or approximately 150,000 cells/well (COS-7) and maintained at 37° C., 5% CO2 in Complete Media (DMEM containing 0.3 mg/ml glutamine, 100 IU/ml penicillin and 100 μg/ml streptomycin (Gibco)) supplemented with 10% fetal calf serum (FCS; Gibco). […] Filtered light emissions were sequentially measured for 3-5 s in each of the ‘donor wavelength window’ (400-475 nm) and ‘acceptor wavelength window’ (>500 nm for EGFP or 520-540 nm for EYFP, Topaz (TYFP) or Venus). […] In this case, data are shown as ‘fluorescence/luminescence’ being the ratio of light emission through the ‘acceptor wavelength window’ over the 400-475 nm emission for a particular cell sample. Unless otherwise stated, BRET signals were measured in 96-well microplates.
Referring now to FIG. 18, eBRET signals were measured from cells transiently co-expressing OxR2/Rluc8 and barr2/Venus either with HA-TRHR or pcDNA3.
Background: Bioluminescence resonance energy transfer reports proximity on the nanometre scale.

The subject of a further assay is TRHR335 with OxR2. Put plainly: eBRET/BRET: truncated TRHR335/Rluc + tagged beta-arrestin + OxR2 as IG3. The assay is classed as cell-based.
Setting [2] is: TRHR335/Rluc + EGFP/barr1 + OxR2, FIG. 9.

Ends that are not written are not given here.

Procedure for TRHR335 with OxR2: Cells were seeded in 6-well plates at a density of approximately 630,000 cells/well (HEK293FT) or approximately 150,000 cells/well (COS-7) and maintained at 37° C., 5% CO2 in Complete Media (DMEM containing 0.3 mg/ml glutamine, 100 IU/ml penicillin and 100 μg/ml streptomycin (Gibco)) supplemented with 10% fetal calf serum (FCS; Gibco). Transient transfections were carried out 24 h after seeding using GeneJuice (Novagen) or Metafectene (Biontex) according to manufacturer instructions. 24 h post-transfection, cells were washed with PBS, detached using 0.05% trypsin/0.53 mM EDTA, resuspended in HEPES-buffered phenol red free Complete Media containing 5% FCS and added to a poly-L-lysine-coated white microplate (Nunc). 48 h post-transfection, eBRET assays were carried out following pre-incubation of cells with EnduRen™ (Promega) at a final concentration of 30-40 μM, at 37° C., 5% CO2 for 2 h. For original BRET studies, the HEPES-buffered phenol red free Complete Media was replaced with PBS and coelenterazine h (Molecular Probes) added to a final concentration of 5 μM immediately prior to commencing the assay. […] Filtered light emissions were sequentially measured for 3-5 s in each of the ‘donor wavelength window’ (400-475 nm) and ‘acceptor wavelength window’ (>500 nm for EGFP or 520-540 nm for EYFP, Topaz (TYFP) or Venus). The BRET signal observed between interacting proteins is normalized by subtracting the background BRET ratio. […] In the following examples, the first calculation will be used, unless the signal is described as the ‘ligand-induced BRET ratio’. […] In this case, data are shown as ‘fluorescence/luminescence’ being the ratio of light emission through the ‘acceptor wavelength window’ over the 400-475 nm emission for a particular cell sample. Unless otherwise stated, BRET signals were measured in 96-well microplates.
Referring now to FIG. 9, eBRET signals were measured from cells transiently co-expressing TRHR335/Rluc and EGFP/barr1 with either OxR2 or TRHR.

Regarding `NC(=O)[C@@H]1CCCN1C(=O)[C@H](Cc1cnc[nH]1)NC(=O)[C@@H]1CCC(=O)N1` [TRH, pGlu-His-Pro-NH2], in assay [1] (gradual increase over time), the “eBRET signal reached (ligand-induced BRET ratio)” value turned out to be 0.05. For the same molecule, the eBRET signal result in the assay with TRHR335 with OxR2 (setting [2]) is “no eBRET signal above baseline”. Moreover, in the assay on TRHR335 with OxR2 (TRHR335/Rluc + barr2/Venus + OxR2, FIG. 15), the “BRET signal (dose response)” value is on record as “does not result in a BRET signal”.
In the case of “OxA: orexin A; known orexin receptor modulator, used as IG3 ligand (modulator) (QPLPDCCRQKTCSCRLYELLHGAGNHAAGILTL; ends and bridges not checked; cysteine pairing not given here; UniProt O43612 34-66, looked up)”, the “time to eBRET signal peak” value in assay [1] was at most 5 min. Further, the “time for eBRET signal to reach plateau” value in the assay with TRHR335 with OxR2 (setting [2]) was “about 20 minutes”.
